Patent US20090203685A1, “ANTI-PROLIFERATIVE COMPOUNDS FROM A 3-ARYL-COUMARINE OR 3-ARYL-QUINOLIN-2-ONE AND USES THEREOF” (EOS (ETHICAL ONCOLOGY SCIENCE) S.P.A., priority 2006, published 2009)
pIC50: −log10 of the molar value.

Key:
[1] = tested on: lung, prostate, breast, colon, melanoma, and myeloid tumor cells; test: Inhibition of cell proliferation in vitro, panel of tumor cells (Example 3); format: cell-based; conditions: Homo sapiens; range over tumor cell lines, printed as 50 nM to 1 μM; 72 h; read-out: IC50s of growth inhibition
Description: 2C Proliferation test ViaLight® HS High Sensitivity Cytotoxicity and Cell Proliferation BioAssay Kit
This protocol allows the determination of the cytostatic and cytotoxic activities of compounds to be tested on mammalian cells in culture and was carried out essentially according to the manufacturer's recommendations.
Cells are suspended in 15 mL of their respective media and are enumerated. They are then diluted in their media in order to obtain: • 2500 cells per 90 μL per well for MRC5 cells • 5000 cells per 90 μL per well for all other cell lines. Cells are then seeded in a 96 well plate, and incubated at least 4 hours in the incubator at 37° C. in 5% CO2. […]
Then, 100 μL of test buffer (test Vialight® test buffer) is added in each well and the control plate is incubated during 2 minutes. The luminescence is read in each well. The mean luminescence for each type of cells is called T0. […]
Then, 100 μL of test buffer (test Vialight® test buffer) is added in each well and the plates are incubated during 2 minutes. The luminescence is read in each well. For each type of cell, the mean luminescence in the well not containing the compound is called C72 and the mean luminescence in well containing a given concentration of a compound to be tested is called T72. […]

[2] = Viability (propidium iodide staining), CEM; format: cell-based; conditions: human, CEM cells (lymphoid), 500 nM
Description: Propidium iodide (PI) cannot normally cross the cell membrane; it is thus excluded by viable cells but not from dying or dead cells, having a damaged membrane, where it intercalates into double-stranded nucleic acids and fluoresces when excited at 488 nm.
The cells are pelleted by gentle centrifugation 1200 rpm/5 min/4° C., then the supernatant is discarded and replaced by 1 mL of fresh medium. One hundred microliters of propidium iodide (40 μg/mL) are added to 400 μL of the cell suspension in a FACS tube and viability is measured by flow cytometry as the percentage of cells whose fluorescence recorded on FL-3 channel is comprised between 0 and 2.
Viability and cell cycle profile, tested with compound (01), at 500 nM: […]

[3] = tested on: human lung cancer NCI-H460 cells (NSCLC); test: Inhibition of tumor growth in vivo, NCI-H460 xenograft; parameters: species or system Swiss nude mice
Description: FIG. 2: Inhibition of tumor growth in vivo.
This graph represents the growth of tumor size (by reference to the initial size of the tumor) grafted to mice receiving different treatments during 15 days.
Rhombus: evolution of the growth of the tumor measured in mice receiving the vehicle (without active ingredient) intra-peritoneally (2QD)
Triangle: evolution of the growth of the tumor measured in mice receiving the compound (01) intra-peritoneally at a dosage of 18 mg/kg (2QD).
Circle: evolution of the growth of the tumor measured in mice receiving taxol intra-peritoneally at 8 mg/kg (Q3D×5; d1; d4; d7; d10; d13).
Cross: evolution of the growth of the tumor measured in mice receiving a combination of compound (01) at a dosage of 18 mg/kg 2QD and taxol at a dosage of 8 mg/kg Q3D×5 intra-peritoneally.
For this experiment, Swiss nude mice received a subcutaneous xenograft of 5×10^6 human lung cancer NCI-H460 cells (NSCLC). The percentage of growth of the tumor size versus tumor size at the beginning of treatment is plotted during 15 days for mice receiving four different treatments (12 mice per group of treatment).
The first treatment corresponds to a control. The mice were given the vehicule intra-peritoneally, 2QD.
Composition of the vehicule: 10% DMSO; 10% PEG-400; 30% (EtOH/Cremophor (1/2)); 50% sterile water.
The second treatment corresponds to the administration of a compound of the invention, compound (01), at a dosage of 18 mg/kg 2QD.
The third treatment corresponds to the administration of Taxol at a dosage of 8 mg/kg Q3D×5; d1; d4; d7; d10; d13.
The fourth treatment corresponds to the administration of a combination of compound (01) at a dosage of 18 mg/kg 2QD and of Taxol at a dosage of 8 mg/kg Q3D×5.

With COc1cc(NC(=S)NC(=O)/C=C/c2ccco2)ccc1-c1cc2ccccc2oc1=O [Compound 01, (2E)-3-(2-furyl)-N-({[3-methoxy-4-(2-oxo-2H-chromen-3-yl)phenyl]amino}carbonothioyl)acrylamide] the pIC50 [1] was 6.00 to 7.30, the viability at 48 h, 0.5 µM ([2]; 48 h) was 10% and the viability at 72 h, 0.5 µM ([2]; 72 h) was 2%. The “Growth of lung tumor xenograft” value ([3]; 18 mg/kg 2QD intra-peritoneally, 15 days) was “inhibits the growth”, the “Dose dependence of the tumor growth inhibition” value ([3]; NCI-H460 xenograft) was “dose-dependent” and the “Efficacy in reducing the tumour growth when combined with taxol” value ([3]; compound (01) 18 mg/kg 2QD plus taxol 8 mg/kg Q3D×5, intra-peritoneally) was “enhanced”.
